In patent US10512656B2, “Compositions and methods for the treatment of lysosomal storage disorders and disorders characterized by lysosomal dysfunction” (Baylor College of Medicine, priority 2016, dated 2019):

Legend:
TFEB S211 = TFEB S211 phosphorylation (Phospho(Ser)-14-3-3 binding motif immunoblot); assay type: cell-based, human; settings: HeLa cells transfected with TFEB-Flag, trehalose 24 h
Description: FIG. 9. […] TFEB-Flag was immunoprecipitated from HeLa cells transfected with TFEB-Flag and treated with trehalose for 24 h or left untreated. Immunoblot analyses were performed using antibody against Phospho(Ser)-14-3-3 binding motif and control antibodies.

CLEAR genes = assay: Real-time qPCR of CLEAR genes in control and JNCL fibroblasts; assay type: cell-based, human; settings: treated versus untreated
Description: Control (Coriell Institute, USA) and JNCL fibroblasts (Gaslini Institute, Italy) were grown in DMEM (1:1, HyClone) supplemented with 10% heat-inactivated fetal bovine serum (FBS, Atlanta Biologicals), 2 mM L-glutamine, 100 U/ml penicillin and […] streptomycin (Invitrogen). HeLa cells were incubated for 2 h with LY294002 ([…], Cell Signaling), Torin 1 (300 nM, Cayman Chemical) or for 24 h with trehalose (100 mM, Sigma), rapamycin (300 nM, Sigma), MK2206 (1 μM, Selleckchem), U0126 ([…], Tocris) and dialyzed serum (GE Healthcare Life Sciences) for 30 min.
Total RNA was extracted from the control and JNCL fibroblasts and from WT and Cln3^Δex7-8 cortical neuron cultures using the RNEasy kit (Qiagen) according to the manufacturer's instructions. Half of the mouse brain was processed for the RNA extraction and one microgram was used for complementary DNA synthesis by QuantiTect Reverse Transcription kit (Qiagen). The primers for PCR with reverse transcription reactions are listed in Table St Quantitative real-time PCR was performed by using iQ SYBR Green Supermix on the CFX96 Touch Real-Time Detection System (Bio-Rad Laboratories). […] Relative gene expression was determined using the ΔΔCT method, normalizing to GAPDH (for human genes) and cyclophilin (for mouse genes). […]

Cln3^Δex7-8 mice [1] = assay: Microglial activation, CD68 immunohistochemistry; assay type: in vivo, mouse
Description: Brains were subsequently removed and postfixed overnight. Before sectioning, the brains were cryoprotected in a solution containing 30% sucrose in Tris-buffered saline (TBS: 50 mM Tris, pH 7.6). Consecutive […] floating coronal sections were collected in 96-well plates. Series of sections were then stained with primary antisera against CD68 or GFAP, followed by either rabbit anti-rat (VectorLab) and swine anti-rabbit (DAKO) secondary antibodies, and immunoreactivity detected with Vectastain ABC (avidin-biotin) kit (Vector) and diaminobenzidine as a chromogen.
Thirty non-overlapping images were captured, on three consecutive sections, through each region of interest. All RGB images were captured via a live video camera (JVC, 3CCD, KY-F55B), mounted onto a Zeiss Axioplan microscope using a ×40 objective and saved as JPEGs. All parameters including lamp intensity, video camera set-up and calibration were maintained constant throughout image capturing. Images were subsequently analysed using ImageJ analysis software (NIH), using an appropriate threshold that selected the foreground immunoreactivity above background. This threshold was then applied as a constant to all subsequent images analysed per batch of animals and reagent used to determine the specific area of immunoreactivity for each antigen in each region. This analysis was performed blind to genotype. […]

Cln3^Δex7-8 mice [2] = assay: Hot plate test (pain sensitivity); assay type: in vivo, mouse; settings: six-month-old Cln3^Δex7-8 mice, 50° C. surface
Excerpt: FIG. 1. Amelioration of disease pathology in JNCL mice fed with trehalose. […] Treated (Tre) Cln3^Δex7-8 mice: n=13. Untreated (UT) Cln3^4ex7-8 mice: n=12. (b) Weight of brains from 12-month-old WT and Cln3^Δex7-8 mice with or without trehalose treatment. All groups of mice, n=4 or 5. (c) Fractional anisotropy of brains from 12-month-old WT and Cln3^Δex7-8 mice with or without trehalose treatment. Left panel: representative coronal images of the four groups of brains; corpus callosa are indicated by the yellow arrowhead. Right panel: quantification of callosal volume. All groups of mice, n=3 or 4. Scale bar, […]. Three-dimensional reconstructions of the corpus callosum in mice from treated and control groups are reported in Supplementary Movies 1-4. (d) In the hot plate test, Cln3^Δex7-8 mice respond slower when placed on a 50° C. heated metal surface compared with wild-type (WT) littermates, indicating reduced pain sensitivity. Trehalose (Tre) treatment rescued this phenotype in Cln3^Δex7-8 mice. All groups of mice, n=14-19. Data represent means±s.e.m. *P<0.05, **P<0.01, ***P<0.001.

GSK3β = molecular target: T1, GSK3β (Homo sapiens, UniProt P49841); assay: GSK3β immunoblot in HeLa cells; assay type: cell-based; settings: trehalose 24 h
T1 construct: endogenous in cells; host or cells: HeLa
T1 sequence (P49841 whole entry): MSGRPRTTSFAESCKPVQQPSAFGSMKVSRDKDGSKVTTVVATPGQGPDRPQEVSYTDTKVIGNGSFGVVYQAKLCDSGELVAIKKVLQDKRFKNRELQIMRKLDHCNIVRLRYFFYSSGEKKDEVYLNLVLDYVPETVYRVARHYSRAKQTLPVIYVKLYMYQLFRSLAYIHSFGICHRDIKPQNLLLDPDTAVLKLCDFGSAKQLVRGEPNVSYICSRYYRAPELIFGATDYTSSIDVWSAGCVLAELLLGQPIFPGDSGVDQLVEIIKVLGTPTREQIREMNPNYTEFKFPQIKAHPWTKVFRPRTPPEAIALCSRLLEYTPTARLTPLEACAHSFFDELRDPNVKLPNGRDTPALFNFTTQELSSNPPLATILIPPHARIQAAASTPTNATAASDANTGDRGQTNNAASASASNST
Excerpt: FIG. 16. […] GAPDH was used as a loading control. […] Images have been cropped for presentation.

Cln3^Δex7-8 mice [3] = assay: Corpus callosum volume by MRI; assay type: in vivo, mouse; settings: 12-month-old Cln3^Δex7-8 mice, trehalose; untreated 12.96±0.43 mm^3
Description: Mice were transcardially perfused before imaging. The head was removed and then the skin, muscle, ears, nose tip and lower jaw were removed to expose the skull. The head was fixed overnight in 4% paraformaldehyde at 4° C. The head was then transferred to 40 mLs of 0.01% sodium azide in PBS and rocked for 7 days at 4° C. The head was transferred to a solution of 5 mM gadopentetate dimeglumine (Bayer HealthCare Pharmaceuticals Inc., Wayne, N.J.) and 0.01% sodium azide in PBS and rocked for 25-35 days at 4° C. Incubation with gadopentetate dimeglumine improved the signal-to-noise ratio. Before imaging, the head was equilibrated to room temperature for 6-8 h.
A total of 48 scans per mouse were acquired on a 9.4 T Bruker Avance Biospec Spectrometer, 21-cm bore horizontal scanner with 35 mm volume resonator (Bruker BioSpin, Billerica, Mass.) with Paravision 5.0 software (Bruker Biospin, Billerica, Mass.). The three-dimensional DTI scan parameters are as follows: spin echo, b-value=0 and 1,000 s/mm^2, 20 diffusion directions with one non-diffusion weighted image, TR=500 ms, TE=14.8 ms, FOV=1.7×1.2×2.4 cm or 2.0×1.4×3.2 cm, matrix=128×96×96, NEX=1, δ=3 ms, Δ=7 ms. The acquisition time was ˜15 h.
The MRI images were first processed on DTI studio to extrapolate the fractional anisotropy. […]

Question: For `OC[C@H]1O[C@H](O[C@H]2O[C@H](CO)[C@@H](O)[C@H](O)[C@H]2O)[C@H](O)[C@@H](O)[C@@H]1O` [trehalose, a-D-glucopyranosyl a-D-glucopyranoside], which “phosphorylation of TFEB S211” value (TFEB S211) is on record?
Answer: The value was “does not modify phosphorylation of TFEB S211”.

Question: What about the “expression of CLEAR genes” value (CLEAR genes) of the same compound?
Answer: The value was “increased expression of tested CLEAR genes”.

Question: And the “microglial activation (CD68)” value (Cln3^Δex7-8 mice [1]; S1BF region, 7 months of age)?
Answer: The value was “significantly rescued”.

Question: And the “reduction of microglial activation (CD68)” value (Cln3^Δex7-8 mice [1]; VPM/VPL region, 12 months of age)?
Answer: Its value is 48%.

Question: And the “pain sensitivity in hot plate assay” value (Cln3^Δex7-8 mice [2])?
Answer: The value was “fully restored”.

Question: And the GSK3β activity (GSK3β)?
Answer: Its GSK3β activity is “no detectable effect”.

Question: What about the corpus callosum volume (Cln3^Δex7-8 mice [3]) of the same compound?
Answer: Its corpus callosum volume is 15.02±0.33 mm^3.
